Measured values from PMC9837035 (Nature Communications, 2023).
pIC50: −log10 of the molar value. “And” between values parts separate entries of the source, which are not always exact repeats. Equal values may be shown once. Read-outs that look alike come from different tables or passages of the source.

Legend:
NSD2 (E1099K) [1] = target: T1, NSD2 (E1099K) (Homo sapiens, UniProt O96028, E1099K); experiment: Radioisotope-based methyltransferase assay (selectivity)
NSD2 (T1150A) = NSD2 (T1150A) (Homo sapiens, UniProt O96028, T1150A)
Sequence of NSD2 (T1150A) (O96028 whole entry T1150A): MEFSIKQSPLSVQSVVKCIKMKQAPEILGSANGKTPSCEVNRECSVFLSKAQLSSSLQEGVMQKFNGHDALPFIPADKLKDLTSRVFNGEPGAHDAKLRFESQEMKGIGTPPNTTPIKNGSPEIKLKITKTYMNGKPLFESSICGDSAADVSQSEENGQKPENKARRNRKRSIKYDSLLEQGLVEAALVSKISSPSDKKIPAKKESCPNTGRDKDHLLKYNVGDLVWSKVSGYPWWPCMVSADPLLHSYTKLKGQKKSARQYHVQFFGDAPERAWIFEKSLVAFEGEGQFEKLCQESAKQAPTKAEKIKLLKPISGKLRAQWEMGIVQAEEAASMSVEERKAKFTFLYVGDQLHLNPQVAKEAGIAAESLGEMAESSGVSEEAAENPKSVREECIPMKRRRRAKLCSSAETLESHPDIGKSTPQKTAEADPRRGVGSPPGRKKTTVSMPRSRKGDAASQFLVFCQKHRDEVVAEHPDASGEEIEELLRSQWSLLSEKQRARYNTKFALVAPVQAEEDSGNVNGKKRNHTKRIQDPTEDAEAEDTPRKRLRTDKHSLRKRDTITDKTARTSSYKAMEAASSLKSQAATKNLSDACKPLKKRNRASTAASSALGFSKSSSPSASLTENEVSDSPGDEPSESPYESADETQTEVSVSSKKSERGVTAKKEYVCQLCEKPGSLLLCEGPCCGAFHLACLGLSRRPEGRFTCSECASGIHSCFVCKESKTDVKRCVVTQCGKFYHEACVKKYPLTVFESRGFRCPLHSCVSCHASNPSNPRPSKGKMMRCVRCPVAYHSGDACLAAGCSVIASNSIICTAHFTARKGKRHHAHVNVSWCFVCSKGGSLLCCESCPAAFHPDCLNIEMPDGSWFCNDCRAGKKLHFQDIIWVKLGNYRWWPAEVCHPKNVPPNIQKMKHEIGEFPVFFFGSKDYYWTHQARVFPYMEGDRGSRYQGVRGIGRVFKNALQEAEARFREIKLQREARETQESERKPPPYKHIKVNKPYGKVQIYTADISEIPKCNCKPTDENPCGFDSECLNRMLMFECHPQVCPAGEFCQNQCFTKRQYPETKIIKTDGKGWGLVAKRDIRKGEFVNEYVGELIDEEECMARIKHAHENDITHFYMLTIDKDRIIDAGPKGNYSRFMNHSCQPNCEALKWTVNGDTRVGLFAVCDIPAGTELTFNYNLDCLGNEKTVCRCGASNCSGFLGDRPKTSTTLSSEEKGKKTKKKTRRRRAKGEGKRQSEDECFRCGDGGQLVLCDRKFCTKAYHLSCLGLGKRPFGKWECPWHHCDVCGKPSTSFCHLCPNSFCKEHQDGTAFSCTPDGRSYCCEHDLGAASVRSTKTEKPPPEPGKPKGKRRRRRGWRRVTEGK

NSD2 (E1099K) [2] = target: T1, NSD2 (E1099K)
EZH2 (Y641F) = EZH2 (Y641F) (Homo sapiens, UniProt Q15910, Y641F); experiment: biochemical
Sequence of EZH2 (Y641F) (Q15910 whole entry Y641F): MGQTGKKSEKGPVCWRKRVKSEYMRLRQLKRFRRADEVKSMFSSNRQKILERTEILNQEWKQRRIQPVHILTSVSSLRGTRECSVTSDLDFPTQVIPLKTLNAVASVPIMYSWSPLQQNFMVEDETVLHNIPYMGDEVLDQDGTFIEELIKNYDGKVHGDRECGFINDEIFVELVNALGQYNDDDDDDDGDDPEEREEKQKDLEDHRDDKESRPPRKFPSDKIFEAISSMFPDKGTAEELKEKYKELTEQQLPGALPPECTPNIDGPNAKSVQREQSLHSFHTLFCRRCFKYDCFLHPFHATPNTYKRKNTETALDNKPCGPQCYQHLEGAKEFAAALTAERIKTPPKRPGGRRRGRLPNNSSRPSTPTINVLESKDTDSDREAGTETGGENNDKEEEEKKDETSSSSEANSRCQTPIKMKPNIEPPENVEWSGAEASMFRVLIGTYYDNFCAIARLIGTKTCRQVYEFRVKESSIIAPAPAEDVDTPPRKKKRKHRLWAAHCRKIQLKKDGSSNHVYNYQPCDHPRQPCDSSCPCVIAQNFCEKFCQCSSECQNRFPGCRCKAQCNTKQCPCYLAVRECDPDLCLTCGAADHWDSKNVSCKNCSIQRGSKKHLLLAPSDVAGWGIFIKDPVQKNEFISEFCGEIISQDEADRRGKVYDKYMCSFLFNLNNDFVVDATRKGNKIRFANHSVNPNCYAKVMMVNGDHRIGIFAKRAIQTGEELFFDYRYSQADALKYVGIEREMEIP
Sequence of EZH2 (Y641F) (O75530 whole entry partner): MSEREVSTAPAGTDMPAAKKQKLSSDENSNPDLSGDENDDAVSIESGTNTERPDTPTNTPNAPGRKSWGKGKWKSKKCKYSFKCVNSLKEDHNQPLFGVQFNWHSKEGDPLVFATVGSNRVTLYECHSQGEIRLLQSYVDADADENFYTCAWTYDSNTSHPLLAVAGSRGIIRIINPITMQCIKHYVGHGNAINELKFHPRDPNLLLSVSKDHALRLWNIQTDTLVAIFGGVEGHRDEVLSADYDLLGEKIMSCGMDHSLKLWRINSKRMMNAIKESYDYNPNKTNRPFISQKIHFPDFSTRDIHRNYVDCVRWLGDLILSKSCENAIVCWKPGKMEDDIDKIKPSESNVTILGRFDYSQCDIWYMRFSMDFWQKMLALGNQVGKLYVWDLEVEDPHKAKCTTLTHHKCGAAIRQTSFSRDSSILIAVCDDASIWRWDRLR
Sequence of EZH2 (Y641F) (Q15022 whole entry partner): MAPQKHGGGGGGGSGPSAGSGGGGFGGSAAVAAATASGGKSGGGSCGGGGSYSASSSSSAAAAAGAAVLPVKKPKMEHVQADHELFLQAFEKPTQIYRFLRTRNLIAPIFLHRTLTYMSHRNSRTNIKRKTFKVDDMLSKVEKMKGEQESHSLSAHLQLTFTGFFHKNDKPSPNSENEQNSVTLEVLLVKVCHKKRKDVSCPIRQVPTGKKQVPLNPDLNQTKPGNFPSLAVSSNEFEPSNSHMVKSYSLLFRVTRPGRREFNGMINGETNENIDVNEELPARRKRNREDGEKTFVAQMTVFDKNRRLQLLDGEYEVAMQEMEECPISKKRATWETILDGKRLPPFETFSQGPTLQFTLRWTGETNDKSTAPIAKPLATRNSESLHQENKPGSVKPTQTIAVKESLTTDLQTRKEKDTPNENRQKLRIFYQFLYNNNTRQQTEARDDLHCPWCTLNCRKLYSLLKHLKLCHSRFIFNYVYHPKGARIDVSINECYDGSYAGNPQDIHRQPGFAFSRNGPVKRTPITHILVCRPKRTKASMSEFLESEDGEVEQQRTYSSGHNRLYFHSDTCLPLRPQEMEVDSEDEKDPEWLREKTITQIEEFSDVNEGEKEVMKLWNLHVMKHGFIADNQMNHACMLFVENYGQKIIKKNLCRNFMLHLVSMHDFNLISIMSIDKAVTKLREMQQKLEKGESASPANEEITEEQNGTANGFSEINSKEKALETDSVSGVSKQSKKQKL
Sequence of EZH2 (Y641F) (Q09028 whole entry partner): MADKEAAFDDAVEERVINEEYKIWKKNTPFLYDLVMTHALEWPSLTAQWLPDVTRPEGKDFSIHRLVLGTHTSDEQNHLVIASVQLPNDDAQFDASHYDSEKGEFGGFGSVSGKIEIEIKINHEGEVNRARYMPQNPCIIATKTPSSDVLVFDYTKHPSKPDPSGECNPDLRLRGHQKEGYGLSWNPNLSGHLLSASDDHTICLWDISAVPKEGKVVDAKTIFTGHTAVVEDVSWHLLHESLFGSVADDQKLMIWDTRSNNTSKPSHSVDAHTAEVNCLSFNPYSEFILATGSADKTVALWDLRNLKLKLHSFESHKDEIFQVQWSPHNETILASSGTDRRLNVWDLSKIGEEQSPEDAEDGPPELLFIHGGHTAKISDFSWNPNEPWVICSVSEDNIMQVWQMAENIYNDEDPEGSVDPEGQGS
Sequence of EZH2 (Y641F) (Q6ZN18 whole entry partner): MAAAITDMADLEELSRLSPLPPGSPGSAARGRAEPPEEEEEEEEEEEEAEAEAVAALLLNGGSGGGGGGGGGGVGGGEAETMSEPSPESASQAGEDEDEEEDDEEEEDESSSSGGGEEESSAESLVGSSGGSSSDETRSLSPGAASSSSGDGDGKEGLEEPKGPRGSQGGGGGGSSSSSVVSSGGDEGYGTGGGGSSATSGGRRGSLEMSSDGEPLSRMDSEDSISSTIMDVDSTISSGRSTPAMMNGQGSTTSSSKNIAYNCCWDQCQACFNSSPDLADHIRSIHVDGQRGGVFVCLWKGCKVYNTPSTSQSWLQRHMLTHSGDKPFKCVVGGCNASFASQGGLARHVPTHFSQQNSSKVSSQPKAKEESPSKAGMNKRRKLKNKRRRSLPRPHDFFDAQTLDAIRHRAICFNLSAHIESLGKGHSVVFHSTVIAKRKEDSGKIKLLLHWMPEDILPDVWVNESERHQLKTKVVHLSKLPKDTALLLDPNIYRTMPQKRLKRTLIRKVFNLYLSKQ

[3] = test system: H3K9me2 in peripheral blood; experiment: H3K9me2 levels in peripheral blood of treated mice; type: in vivo
Description: Preparation of cell lysates and western blotting were performed as described previously. Protein from cells lysates in lysis buffer (50 mM Tris-HCl (pH 7.5), 150 mM NaCl, 5 mM EDTA, 0.1% NP-40, 1 mM dithiothreitol) were separated by sodium dodecyl sulfate–polyacrylamide gel electrophoresis (SDS-PAGE) and transferred to a polyvinylidene difluoride (PVDF) membrane (Millipore) by electroblotting. The membranes incubated with primary antibodies overnight at 4 °C and secondary antibodies for 1 h at room temperature. The immune complexes were detected with the Immobilon Western Chemiluminescent HRP Substrate (Millipore). Luminescence was analyzed on a FUSION SOLO S (Vilber). Western blot bands were visualized using Evolution Capt software (M&S Instruments Inc.). Primary antibodies used were anti-G9a (1:1000, CST, #3306), anti–α-tubulin (1:5000, Abcam, ab18251), anti-H3K9me2 (1:3000, Abcam, ab1220), anti-H3 (1:5000, Abcam, ab1791), anti-H3K27me3 (1:3000, Sigma, 07-449), anti-GLP (1:1000, CST, #35005), anti-FLAG (100 ng/ml, Fujifilm, 01422383), anti-His (1:5000, MBL, PM032), anti-BCL11A (1:1000, abcam, ab19487), anti-ZBTB7A (1:1000, CST, #50565), anti-CHD3 (1:1000, Novus Biologicals, NB100-60412), and anti-CHD4 (1:1000, abcam, ab240640). […]
The dosing solution contained 15% DMSO, 17.5% Cremophor EL, 8.75% EtOH, 8.75% HCO-40, and 50% PBS. […] The weight of each mouse was measured every 3 or 4 days.

ASH1L = target: T2, ASH1L (Homo sapiens, UniProt Q9NR48); experiment: Radioisotope-based methyltransferase assay (selectivity); type: biochemical; conditions: ASH1L, read-out: IC50
T2 construct: purchased Reaction Biology

mice = experiment: Mouse acute toxicity assay, survival; type: in vivo; conditions: intravenous; for Number of alive mice: 2-week observation
Method in brief: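 Four-week-old female ICR mice received compounds intravenously in saline with 10% DMSO and 1% Tween 80; body weight and survival monitored.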

NSD2 = NSD2 (Homo sapiens, UniProt O96028); experiment: Radioisotope-based methyltransferase assay (selectivity)
Sequence of NSD2 (O96028 whole entry): as the sequence (O96028 whole entry T1150A) above, with A1150T counted along it

G9a = target: T3, G9a (Homo sapiens, UniProt Q96KQ7); experiment: as above; conditions: 1 μM SAM
T3 sequence (Q96KQ7 1-1210): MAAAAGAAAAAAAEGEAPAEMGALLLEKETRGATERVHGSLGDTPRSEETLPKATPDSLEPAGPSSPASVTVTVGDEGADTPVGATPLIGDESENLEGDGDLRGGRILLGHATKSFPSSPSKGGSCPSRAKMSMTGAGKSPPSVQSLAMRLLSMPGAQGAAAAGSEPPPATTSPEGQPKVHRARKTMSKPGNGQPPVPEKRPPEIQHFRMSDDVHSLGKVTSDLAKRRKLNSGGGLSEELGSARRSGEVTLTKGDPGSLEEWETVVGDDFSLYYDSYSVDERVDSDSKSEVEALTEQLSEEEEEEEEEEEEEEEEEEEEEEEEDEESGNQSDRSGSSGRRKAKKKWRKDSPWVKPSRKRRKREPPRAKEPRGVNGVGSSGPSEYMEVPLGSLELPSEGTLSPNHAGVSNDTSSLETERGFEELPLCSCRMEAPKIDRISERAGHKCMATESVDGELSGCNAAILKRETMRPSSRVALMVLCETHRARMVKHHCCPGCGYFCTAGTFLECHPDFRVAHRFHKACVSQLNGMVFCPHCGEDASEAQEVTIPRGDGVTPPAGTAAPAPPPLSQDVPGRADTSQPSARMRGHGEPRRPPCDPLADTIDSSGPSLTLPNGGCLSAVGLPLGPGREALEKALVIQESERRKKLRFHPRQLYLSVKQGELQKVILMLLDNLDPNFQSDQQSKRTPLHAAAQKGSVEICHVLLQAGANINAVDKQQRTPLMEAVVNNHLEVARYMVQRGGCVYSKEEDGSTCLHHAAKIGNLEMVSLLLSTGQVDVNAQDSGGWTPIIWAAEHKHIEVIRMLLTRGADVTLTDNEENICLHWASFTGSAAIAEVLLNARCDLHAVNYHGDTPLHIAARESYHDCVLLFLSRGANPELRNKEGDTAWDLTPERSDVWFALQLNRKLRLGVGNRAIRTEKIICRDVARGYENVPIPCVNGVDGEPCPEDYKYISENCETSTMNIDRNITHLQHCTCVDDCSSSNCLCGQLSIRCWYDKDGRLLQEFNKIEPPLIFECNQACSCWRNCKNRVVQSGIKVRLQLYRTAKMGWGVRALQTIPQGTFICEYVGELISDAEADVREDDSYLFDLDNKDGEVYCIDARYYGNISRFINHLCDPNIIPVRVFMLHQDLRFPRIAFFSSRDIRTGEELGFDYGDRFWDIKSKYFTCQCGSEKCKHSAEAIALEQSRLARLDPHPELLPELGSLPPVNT

PRMT8 = PRMT8 (Homo sapiens, UniProt Q9NR22); experiment: as above
Sequence of PRMT8 (Q9NR22 whole entry): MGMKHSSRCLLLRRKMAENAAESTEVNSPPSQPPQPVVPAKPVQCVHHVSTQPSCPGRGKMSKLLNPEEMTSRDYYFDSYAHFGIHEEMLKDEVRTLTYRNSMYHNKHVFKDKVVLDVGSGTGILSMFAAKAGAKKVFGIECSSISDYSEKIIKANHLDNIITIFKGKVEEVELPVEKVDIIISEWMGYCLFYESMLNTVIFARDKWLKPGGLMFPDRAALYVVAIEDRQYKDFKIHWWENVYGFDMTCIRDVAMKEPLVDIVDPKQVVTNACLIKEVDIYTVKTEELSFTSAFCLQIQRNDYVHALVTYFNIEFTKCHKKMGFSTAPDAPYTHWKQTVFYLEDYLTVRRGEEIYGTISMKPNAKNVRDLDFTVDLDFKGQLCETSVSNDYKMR

[4] = test system: G9a and GLP in HUDEP-2 cells; experiment: Western blotting of G9a and GLP levels in HUDEP-2 cells; type: cell-based, human
Description: Preparation of cell lysates and western blotting were performed as described previously. Protein from cells lysates in lysis buffer (50 mM Tris-HCl (pH 7.5), 150 mM NaCl, 5 mM EDTA, 0.1% NP-40, 1 mM dithiothreitol) were separated by sodium dodecyl sulfate–polyacrylamide gel electrophoresis (SDS-PAGE) and transferred to a polyvinylidene difluoride (PVDF) membrane (Millipore) by electroblotting. The membranes incubated with primary antibodies overnight at 4 °C and secondary antibodies for 1 h at room temperature. The immune complexes were detected with the Immobilon Western Chemiluminescent HRP Substrate (Millipore). Luminescence was analyzed on a FUSION SOLO S (Vilber). Western blot bands were visualized using Evolution Capt software (M&S Instruments Inc.). Primary antibodies used were anti-G9a (1:1000, CST, #3306), anti–α-tubulin (1:5000, Abcam, ab18251), anti-H3K9me2 (1:3000, Abcam, ab1220), anti-H3 (1:5000, Abcam, ab1791), anti-H3K27me3 (1:3000, Sigma, 07-449), anti-GLP (1:1000, CST, #35005), anti-FLAG (100 ng/ml, Fujifilm, 01422383), anti-His (1:5000, MBL, PM032), anti-BCL11A (1:1000, abcam, ab19487), anti-ZBTB7A (1:1000, CST, #50565), anti-CHD3 (1:1000, Novus Biologicals, NB100-60412), and anti-CHD4 (1:1000, abcam, ab240640). Uncropped scans of all of the blots are available in Source Data file.

T1 sequence (O96028 whole entry E1099K): as the sequence (O96028 whole entry T1150A) above, with E1099K, A1150T counted along it

Compound: Cc1c(C(=O)NC(CCC2CC2)C(=O)Nc2ccc(C#N)cc2)[nH]c2c1C(=O)CC(C)(C)C2 (stereo not shown) [RK-701]
- pIC50 (NSD2 (E1099K) [1]): < 4.00
- pIC50 (NSD2 (T1150A)): < 4.00
- pIC50 (NSD2 (E1099K) [2]): < 4.00
- pIC50 (EZH2 (Y641F)): < 4.00
- H3K9me2 levels in peripheral blood cells [3]: significant decrease
- pIC50 (ASH1L; 1 μM SAM): 4.10
- pIC50 (ASH1L; RK-701 in duplicate): 4.09 and 4.11
- Number of alive mice (mice; 12.5 mg/kg): 3/3
- Number of alive mice (mice; 25 mg/kg): 3/3
- Number of alive mice (mice; 50 mg/kg): 3/3
- Number of alive mice (mice; 100 mg/kg): 3/3
- acute toxicity, survival (mice; mice): survived for two weeks
- pIC50 (NSD2): < 4.00
- pIC50 (G9a): 7.64
- pIC50 (PRMT8): < 4.00
- expression levels of G9a and GLP [4]: did not affect
